# Results as given in patent publication US8192962B2, “Processes for detecting toxic substances” (Daikin Industries, Ltd., priority 2001, dated 2012).
# Test system: Unknown protein yeast genes
# Assay: DNA chip mRNA expression in yeast, unknown protein yeast genes (Table 1)
# Assay type: cell-based, Saccharomyces cerevisiae S288C
# Summary of the method: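 S. cerevisiae S288C grown at 25° C. in YPD to log phase, then exposed 2 h to a toxicant at a growth-inhibiting, non-lethal concentration; untreated cells as control. Poly(A) mRNA reverse-transcribed with Cy3-dUTP or Cy5-dUTP, hybridized >12 h at 65° C. to whole-genome yeast DNA chip; value = fluorescence ratio treated/untreated.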
substance,measurement,setting,value
manganese ethylenebis(dithiocarbamate) [(8)],The level of expressed mRNA in the presence of chemical substance/The level of expressed mRNA in the absence of chemical substance,"yeast gene YAL053W, incubated two hours with chemical substance",0.8
same,The level of expressed mRNA in the presence of chemical substance/The level of expressed mRNA in the absence of chemical substance,yeast gene YBL048W,1.2
same,The level of expressed mRNA in the presence of chemical substance/The level of expressed mRNA in the absence of chemical substance,yeast gene YBL107C,1.9
same,The level of expressed mRNA in the presence of chemical substance/The level of expressed mRNA in the absence of chemical substance,"yeast gene YDL072C, incubated two hours with chemical substance",0.8
same,The level of expressed mRNA in the presence of chemical substance/The level of expressed mRNA in the absence of chemical substance,"yeast gene YDL204W, incubated two hours with chemical substance",1.1
same,The level of expressed mRNA in the presence of chemical substance/The level of expressed mRNA in the absence of chemical substance,"yeast gene YDL222C, incubated two hours with chemical substance",0.7
same,The level of expressed mRNA in the presence of chemical substance/The level of expressed mRNA in the absence of chemical substance,"yeast gene YDR330W, incubated two hours with chemical substance",1.1
same,The level of expressed mRNA in the presence of chemical substance/The level of expressed mRNA in the absence of chemical substance,"yeast gene YDR411C, incubated two hours with chemical substance",0.9
same,The level of expressed mRNA in the presence of chemical substance/The level of expressed mRNA in the absence of chemical substance,"yeast gene YDR511W, incubated two hours with chemical substance",1.7
same,The level of expressed mRNA in the presence of chemical substance/The level of expressed mRNA in the absence of chemical substance,"yeast gene YDR545W, incubated two hours with chemical substance",0.6
same,The level of expressed mRNA in the presence of chemical substance/The level of expressed mRNA in the absence of chemical substance,"yeast gene YEL001C, incubated two hours with chemical substance",1.2
same,The level of expressed mRNA in the presence of chemical substance/The level of expressed mRNA in the absence of chemical substance,"yeast gene YER004W, incubated two hours with chemical substance",1.1
same,The level of expressed mRNA in the presence of chemical substance/The level of expressed mRNA in the absence of chemical substance,"yeast gene YER035W, incubated two hours with chemical substance",1.2
same,The level of expressed mRNA in the presence of chemical substance/The level of expressed mRNA in the absence of chemical substance,"yeast gene YER079W, incubated two hours with chemical substance",1.4
same,The level of expressed mRNA in the presence of chemical substance/The level of expressed mRNA in the absence of chemical substance,"yeast gene YER106W, incubated two hours with chemical substance",1.2
same,The level of expressed mRNA in the presence of chemical substance/The level of expressed mRNA in the absence of chemical substance,"yeast gene YER158C, incubated two hours with chemical substance",0.9
same,The level of expressed mRNA in the presence of chemical substance/The level of expressed mRNA in the absence of chemical substance,"yeast gene YER163C, incubated two hours with chemical substance",1.4
same,The level of expressed mRNA in the presence of chemical substance/The level of expressed mRNA in the absence of chemical substance,"yeast gene YER175C, incubated two hours with chemical substance",1.1
same,The level of expressed mRNA in the presence of chemical substance/The level of expressed mRNA in the absence of chemical substance,"yeast gene YFL006W, incubated two hours with chemical substance",1.0
same,The level of expressed mRNA in the presence of chemical substance/The level of expressed mRNA in the absence of chemical substance,"yeast gene YFL010C, incubated two hours with chemical substance",1.0
same,The level of expressed mRNA in the presence of chemical substance/The level of expressed mRNA in the absence of chemical substance,yeast gene YFL024C,0.9
same,The level of expressed mRNA in the presence of chemical substance/The level of expressed mRNA in the absence of chemical substance,"yeast gene YFL032W, incubated two hours with chemical substance",0.4
same,The level of expressed mRNA in the presence of chemical substance/The level of expressed mRNA in the absence of chemical substance,"yeast gene YGL037C, incubated two hours with chemical substance",1.2
same,The level of expressed mRNA in the presence of chemical substance/The level of expressed mRNA in the absence of chemical substance,"yeast gene YGL047W, incubated two hours with chemical substance",1.1
same,The level of expressed mRNA in the presence of chemical substance/The level of expressed mRNA in the absence of chemical substance,"yeast gene YGL053W, incubated two hours with chemical substance",1.2
same,The level of expressed mRNA in the presence of chemical substance/The level of expressed mRNA in the absence of chemical substance,yeast gene YGL121C,3.0
same,The level of expressed mRNA in the presence of chemical substance/The level of expressed mRNA in the absence of chemical substance,"yeast gene YGL199C, incubated two hours with chemical substance",0.7
same,The level of expressed mRNA in the presence of chemical substance/The level of expressed mRNA in the absence of chemical substance,"yeast gene YGR101W, incubated two hours with chemical substance",0.8
same,The level of expressed mRNA in the presence of chemical substance/The level of expressed mRNA in the absence of chemical substance,yeast gene YGR110W,1.5
same,The level of expressed mRNA in the presence of chemical substance/The level of expressed mRNA in the absence of chemical substance,"yeast gene YGR130C, incubated two hours with chemical substance",0.9
same,The level of expressed mRNA in the presence of chemical substance/The level of expressed mRNA in the absence of chemical substance,"yeast gene YGR154C, incubated two hours with chemical substance",1.7
same,The level of expressed mRNA in the presence of chemical substance/The level of expressed mRNA in the absence of chemical substance,"yeast gene YGR221C, incubated two hours with chemical substance",1.1
same,The level of expressed mRNA in the presence of chemical substance/The level of expressed mRNA in the absence of chemical substance,"yeast gene YHR138C, incubated two hours with chemical substance",1.4
same,The level of expressed mRNA in the presence of chemical substance/The level of expressed mRNA in the absence of chemical substance,"yeast gene YHR199C, incubated two hours with chemical substance",1.0
same,The level of expressed mRNA in the presence of chemical substance/The level of expressed mRNA in the absence of chemical substance,"yeast gene YIL023C, incubated two hours with chemical substance",0.7
same,The level of expressed mRNA in the presence of chemical substance/The level of expressed mRNA in the absence of chemical substance,"yeast gene YIL041W, incubated two hours with chemical substance",0.9
same,The level of expressed mRNA in the presence of chemical substance/The level of expressed mRNA in the absence of chemical substance,"yeast gene YIL087C, incubated two hours with chemical substance",1.1
same,The level of expressed mRNA in the presence of chemical substance/The level of expressed mRNA in the absence of chemical substance,"yeast gene YJL057C, incubated two hours with chemical substance",1.5
same,The level of expressed mRNA in the presence of chemical substance/The level of expressed mRNA in the absence of chemical substance,"yeast gene YJL066C, incubated two hours with chemical substance",0.8
same,The level of expressed mRNA in the presence of chemical substance/The level of expressed mRNA in the absence of chemical substance,"yeast gene YJL082W, incubated two hours with chemical substance",0.9
same,The level of expressed mRNA in the presence of chemical substance/The level of expressed mRNA in the absence of chemical substance,"yeast gene YJL151C, incubated two hours with chemical substance",0.8
same,The level of expressed mRNA in the presence of chemical substance/The level of expressed mRNA in the absence of chemical substance,"yeast gene YJL152W, incubated two hours with chemical substance",0.7
same,The level of expressed mRNA in the presence of chemical substance/The level of expressed mRNA in the absence of chemical substance,"yeast gene YJL161W, incubated two hours with chemical substance",1.4
same,The level of expressed mRNA in the presence of chemical substance/The level of expressed mRNA in the absence of chemical substance,"yeast gene YJL171C, incubated two hours with chemical substance",0.9
same,The level of expressed mRNA in the presence of chemical substance/The level of expressed mRNA in the absence of chemical substance,"yeast gene YJR008W, incubated two hours with chemical substance",1.1
same,The level of expressed mRNA in the presence of chemical substance/The level of expressed mRNA in the absence of chemical substance,"yeast gene YJR054W, incubated two hours with chemical substance",1.6
same,The level of expressed mRNA in the presence of chemical substance/The level of expressed mRNA in the absence of chemical substance,yeast gene YKL071W,24.7
same,The level of expressed mRNA in the presence of chemical substance/The level of expressed mRNA in the absence of chemical substance,"yeast gene YKL086W, incubated two hours with chemical substance",1.1
same,The level of expressed mRNA in the presence of chemical substance/The level of expressed mRNA in the absence of chemical substance,"yeast gene YKL151C, incubated two hours with chemical substance",1.0
same,The level of expressed mRNA in the presence of chemical substance/The level of expressed mRNA in the absence of chemical substance,"yeast gene YKL153W, incubated two hours with chemical substance",0.7
